# From patent publication US20240327428A1, “Inhibitors of human immunodeficiency virus replication, method of making and method of using thereof” (ASCLETIS BIOSCIENCE CO., LTD., priority 2023, published 2024)
# Tests used:
# MT-4 cells = assay: Cellular toxicity in MT-4 cells (XTT staining); type: cell-based; settings: 6 days incubation, read-out: TC50 (50% reduction in cell viability)
# Description: (§1) The compounds were evaluated for inhibition of HIV-1IIIB infection and cellular toxicity in MT-4 cells.
# (§2) The MT-4 cells and […] used in the HIV-1 inhibition assays were obtained from the AIDS Research and Reference Program (Rockville, MD) and propagated as recommended by the supplier.
# (§3) Fifty microliters (50 μL) of MT-4 cells at a density of 1.0×10^4 cells/well in 10% complete RPMI-1640 (10% FBS supplemented with 1% L-glutamine and 1% Penicillin/Streptomycin) media were plated in a 96-well flat bottom plate. One-hundred microliters (100 μL) of each compound at 12 concentrations were added in triplicate followed by 50 μL of HIV-1IIIB at a pre-determined titer. The cultures were incubated for 6 days at 37° C./5% CO2. Following the incubation, the cells were stained with XTT for evaluation of compound efficacy and cellular toxicity, as described below.
# (§4) Efficacy and toxicity values for the test materials were derived by measuring the reduction of the tetrazolium dye XTT (2,3-bis(2-methoxy-4-nitro-5-sulfophenyl)-5-[(phenylamino)carbonyl]-2H-tetrazolium hydroxide). XTT in metabolically active cells is metabolized by the mitochondrial enzyme NADPH oxidase to a soluble formazan product. XTT solution was prepared daily as a stock of 1 mg/mL in RPMI-1640 without additives. Phenazine methosulfate (PMS) solution was prepared at 0.15 mg/mL in DPBS and stored in the dark at −20° C. XTT/PMS stock was prepared immediately before use by adding 40 μL of PMS per mL of XTT solution. Fifty μL (50 μL) of XTT/PMS was added to each well of the plate and the plate incubated for 4 hours at 37° C. The 4-hour incubation has been empirically determined to be within the linear response range for XTT dye reduction with the indicated numbers of cells for each assay. The plates were sealed and inverted several times to mix the soluble formazan product and the plate was read at 450 nm (650 nm reference wavelength) with a Molecular Devices SpectraMax Plus 384 96 well plate format spectrophotometer.
# (§5) Microsoft Excel 2010 in combination with XLfit4 was used to analyze and graph the data. EC50 (50% inhibition of virus replication), TC50 (50% reduction in cell viability) and a therapeutic index (TC50/EC50) are provided. Raw data for both antiviral activity and toxicity with a graphic representation of the data are provided in a printout summarizing the compound activity.
# HIV-1IIIB = assay: Inhibition of HIV-1IIIB infection in MT-4 cells (XTT staining); type: cell-based; settings: HIV-1IIIB in MT-4 cells; for EC50: 6 days incubation, XTT, read-out: EC50 (50% inhibition of virus replication)
# Description: as §1, §2, §3, §4, §5
smiles,measurement,setting,value
"CS(=O)(=O)Nc1nn(CC(F)(F)F)c2c(-n3c([C@H](Cc4cc(F)cc(F)c4)NC(=O)Cn4nc(C(F)(F)F)c5c4C(F)(F)[C@@H]4C[C@H]54)nc4ncsc4c3=O)ccc(Cl)c12 (atropisomer, axis not shown) [Compound 31]",CC50,MT-4 cells,> 100 nM
same,Therapeutic Index (TC50/EC50),HIV-1IIIB,>384.6
same,EC50,HIV-1IIIB,0.26 nM
Cn1nc(NS(C)(=O)=O)c2c(Cl)ccc(-n3c([C@H](Cc4cc(F)cc(F)c4)NC(=O)Cn4nc(C(F)(F)F)c5c4C(F)(F)C4CC54)nc4nc(S(C)(=O)=O)sc4c3=O)c21 (stereo partly shown) [Compound 30],CC50,MT-4 cells,> 100 nM
same,EC50,HIV-1IIIB,> 100 nM
"Cc1nsc2nc([C@H](Cc3cc(F)cc(F)c3)NC(=O)Cn3nc(C(F)(F)F)c4c3C(F)(F)[C@@H]3C[C@H]43)n(-c3ccc(Cl)c4c(NS(C)(=O)=O)nn(C)c34)c(=O)c12 (atropisomer, axis not shown) [Compound 45]",CC50,MT-4 cells,> 100 nM
same,Therapeutic Index (TC50/EC50),HIV-1IIIB,>212.8
same,EC50,HIV-1IIIB,0.47 nM
"Cn1nc(NS(C)(=O)=O)c2c(Cl)ccc(-n3c([C@H](Cc4cc(F)cc(F)c4)NC(=O)Cn4nc(C(F)(F)F)c5c4C(F)(F)[C@@H]4C[C@H]54)nc4sccc4c3=O)c21 (atropisomer, axis not shown) [Compound 33]",CC50,MT-4 cells,> 100 nM
same,Therapeutic Index (TC50/EC50),HIV-1IIIB,>294.1
same,EC50,HIV-1IIIB,0.34 nM
"Cn1nc(NS(C)(=O)=O)c2c(Cl)ccc(-n3c([C@H](Cc4cc(F)cc(F)c4)NC(=O)Cn4nc(C(F)(F)F)c5c4C(F)(F)[C@@H]4C[C@H]54)nc4onc(-c5ccccc5)c4c3=O)c21 (atropisomer, axis not shown) [Compound 38]",CC50,MT-4 cells,> 100 nM
same,EC50,HIV-1IIIB,> 100 nM
"Cn1nc(NS(C)(=O)=O)c2c(Cl)ccc(-n3c([C@H](Cc4cc(F)cc(F)c4)NC(=O)Cn4nc(C(F)(F)F)c5c4C(F)(F)[C@@H]4C[C@H]54)nc4ncsc4c3=O)c21 (atropisomer, axis not shown) [Compound 36]",CC50,MT-4 cells,> 100 nM
same,Therapeutic Index (TC50/EC50),HIV-1IIIB,>625.0
same,EC50,HIV-1IIIB,0.16 nM
